# Laboratory results as given in ChEMBL document CHEMBL1122454, “Piperazinylimidazo[1,2-a]pyrazines with selective affinity for in vitro alpha-adrenergic receptor subtypes” (J Med Chem, 1983).
# Key:
# Bos taurus = species: Bos taurus; experiment: Relative affinity for alpha-1 and alpha-2 adrenergic receptors; parameters: reference not given here
# [1] = Displacement of [3H]clonidine from alpha-2-adrenergic receptor of calf neocortical membrane; parameters: species or system Bos taurus
# [2] = Displacement of [3H]prazosin from alpha-1-adrenergic receptor of calf neocortical membrane; parameters: species or system Bos taurus
SMILES,Ratio (Bos taurus),Kd [1] [nM],Kd ([2]; read-out: Kd) [nM],Kd [2] [nM]
CN1CCN(c2nc(Cl)cn3ccnc23)CC1,2.6,144,380,–
Clc1cnc2cnc(N3CCNCC3)cn12,0.36,18900,6800,–
c1ccc2c(c1)N=C(N1CCNCC1)C1=NCCN12,0.72,1800,1300,–
Clc1cn2c(Cl)cnc2c(N2CCNCC2)n1,0.4,1000,410,–
c1cn2c(N3CCNCC3)cncc2n1,1.8,28100,51000,–
c1cn2ccnc2c(N2CCNCC2)n1,160,19,3100,–
Cc1cnc2c(N3CCNCC3)nc(Cl)cn12,0.64,250,160,–
c1ccc(-c2cn3ccnc3c(N3CCNCC3)n2)cc1,0.2,1800,360,–
Clc1cn2ccnc2c(N2CCNCC2)n1,2.8,88,250,–
Clc1cn2c3c(nc2c(N2CCNCC2)n1)CCCC3,0.13,1500,200,–
Clc1cnc2c(N3CCNCC3)nccn12,9.6,290,2780,–
CN1CCN2c3ccccc3Cc3ccccc3C2C1 (configuration not stated) [MIANSERIN],2.3,19,–,43
Clc1cncc(N2CCNCC2)n1 [MK-212],16,150,2400,–
ClC1=CN2CCN=C2C(N2CCNCC2)=N1,1.9,1600,3000,–
